Melting point data for 2 compounds are collected here from US7820825B2, “N-substituted-azacyclylamines as histamine-3 antagonists” (Wyeth LLC, priority 2006, dated 2010).

As usually defined, the melting point is the temperature of the solid-liquid transition.

On to `CN(C)[C@H]1CCN(C(=O)c2ccc(Cc3cn(C)c4ccccc34)cc2)C1` [Example 230, (3S)-N,N-dimethyl-1-{4-[(1-methyl-1H-indol-3-yl)methyl]benzoyl}pyrrolidin-3-amine], for which the melting point was in the range of 101 to 105 °C.
For `Cn1cc(Cc2ccc(C(=O)N3CC[C@H](N4CCCC4)C3)cc2)c2ccccc21` [Example 229, (3′S)-1-{4-[(1-methyl-1H-indol-3-yl)methyl]benzoyl}-1,3′-bipyrrolidine] the value was 73 to 78 °C.
